Where two headings read alike, the source gives them in different places.
Target: T1, hTLR8 (Homo sapiens, UniProt Q9NR97)
T1 construct: host or cells: HEK293 cells stably transfected with hTLR8
T1 sequence (Q9NR97 27-1041): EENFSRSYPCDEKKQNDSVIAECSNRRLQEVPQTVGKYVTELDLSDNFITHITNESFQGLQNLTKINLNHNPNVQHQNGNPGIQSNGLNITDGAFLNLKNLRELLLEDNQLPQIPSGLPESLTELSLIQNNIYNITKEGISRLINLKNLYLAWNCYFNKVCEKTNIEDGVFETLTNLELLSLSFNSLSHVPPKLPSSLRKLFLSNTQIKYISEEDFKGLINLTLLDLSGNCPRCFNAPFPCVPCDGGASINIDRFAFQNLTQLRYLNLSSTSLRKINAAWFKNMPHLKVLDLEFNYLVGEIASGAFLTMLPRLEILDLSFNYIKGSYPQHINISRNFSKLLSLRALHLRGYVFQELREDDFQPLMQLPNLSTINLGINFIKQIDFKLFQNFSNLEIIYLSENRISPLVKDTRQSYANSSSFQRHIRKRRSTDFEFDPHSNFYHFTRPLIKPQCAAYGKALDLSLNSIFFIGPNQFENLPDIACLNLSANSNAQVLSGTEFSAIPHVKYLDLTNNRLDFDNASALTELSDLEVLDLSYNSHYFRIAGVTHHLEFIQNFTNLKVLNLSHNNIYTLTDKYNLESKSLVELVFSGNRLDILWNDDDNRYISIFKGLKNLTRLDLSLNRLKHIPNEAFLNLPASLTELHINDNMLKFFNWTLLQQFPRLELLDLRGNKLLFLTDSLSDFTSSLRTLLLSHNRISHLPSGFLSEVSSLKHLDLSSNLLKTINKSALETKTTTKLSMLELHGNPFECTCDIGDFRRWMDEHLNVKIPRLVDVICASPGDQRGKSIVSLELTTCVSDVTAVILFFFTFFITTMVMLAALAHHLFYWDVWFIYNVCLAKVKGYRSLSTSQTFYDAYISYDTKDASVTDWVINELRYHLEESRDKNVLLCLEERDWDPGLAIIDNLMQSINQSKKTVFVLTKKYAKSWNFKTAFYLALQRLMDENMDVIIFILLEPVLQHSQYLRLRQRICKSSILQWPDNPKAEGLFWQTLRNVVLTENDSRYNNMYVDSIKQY
Assay: HEK-293 hTLR8 transfectant NF-κB SEAP reporter antagonist assay
Type: cell-based
Details: for inhibition at 25 µM: HEK293, TLR8 antagonist activity at 25 μM (in some cases assessed at lower concentrations)
Protocol: The HEK-293 hTLR transfectant assay employs HEK293 cells stably transfected with various hTLRs and transiently co-transfected with a plasmid containing an NF-κB driven secreted embryonic alkaline phosphate (SEAP) reporter gene. Stimulation of TLRs activates their downstream signaling pathways and induces nuclear translocation of the transcription factor NF-κB. Reporter gene activity is then measured using a spectrophotometric assay.
For the TLR8 antagonist assays, cells are transiently transfected with the reporter gene on Day 1 per the supplier's instructions. Antagonist compounds are added to the cultures on Day 2 followed by addition of a TLR8 agonist approximately 2 hours later. Cultures are incubated overnight and SEAP activity is measured on Day 3.
In a typical assay, 50,000 HEK239 hTLR8 cells are seeded per culture well and transiently transfected with the SEAP reporter gene. Antagonists are added to cultures in culture medium and […] DMSO over a concentration range of 0.1 nanomolar to 10 micromolar. TLR8 agonists are added to cultures 2 hours later at a fixed concentration (e.g., 1 micromolar or 10 micromolar of Compound A) and cultures are then incubated for 16-24 hrs at 37° C. in a humidified CO incubator. Antagonists are also evaluated for activity in the absence of agonist.
TLR8 antagonist activity at 25 μM is presented in Table 2, where + denotes a % inhibition of 20-39, ++ denotes a % inhibition of 40-59, +++ denotes a % inhibition of 60-79 and ++++ denotes a % inhibition of 80-99. In some cases, antagonist activity was assessed at lower concentrations, for example, at 8.3, 2.8, or less than 1 μM.
TLR8 antagonist activity was measured in a hTLR8 assay format, measuring IC50 values. Compounds were incubated with hTLR8 reporter cells for two hours, then 1 μM Compound A was added to induce TLR8 overnight. IC50 were then calculated.

[1] = hTLR8 reporter cells, 2 h preincubation, then 1 μM Compound A overnight, read-out: IC50
[2] = IC50, nM, vs. VTX-378 1 μM, agonist VTX-378 at 1 μM
[3] = IC50, nM, vs. VTX-378 10 μM, agonist VTX-378 at 10 μM
[4] = agonist VTX-378 at 0.5 μM, read-out: IC50, nM, vs. VTX-378 0.5 μM

Structure (SMILES) | inhibition at 25 µM | IC50 [2] | IC50 [3] | other results
CCCN(CCC)C(=O)C1=Cc2cc(OC)c(-c3ccc(C(=O)N(CCC)CCC)cc3)cc2N=C(N)C1 [Compound 12, (1E,4E)-2-Amino-8-(4-(dipropylcarbamoyl)phenyl)-7-methoxy-N,N-dipropyl-3H-benzo[b]azepine-4-carboxamide] |  |  |  | IC50 [1]: 1000 to 5000 nM
CCCN(CCCO)C(=O)C1=Cc2cc(OC)c(-c3ccc(C(=O)N4CCCC4)cc3)cc2N=C(N)C1 [Compound 25, (1E,4E)-2-Amino-N-(3-hydroxypropyl)-7-methoxy-N-propyl-8-(4-(pyrrolidine-1-carbonyl)phenyl)-3H-benzo[b]azepine-4-carboxamide] | 20 to 39% |  |  | 
CCCN(CCC)C(=O)C1=Cc2ccc(-c3ccc(C(=O)N4CCCC4)cc3)cc2N=C(NN)C1 [Compound 33, (1E,4E)-2-Hydrazinyl-N,N-dipropyl-8-(4-(pyrrolidine-1-carbonyl)phenyl)-3H-benzo[b]azepine-4-carboxamide] | 80 to 99% |  |  | IC50 [1]: 1000 to 5000 nM
CCCN(CCCO)C(=O)C1=Cc2ccc(-c3ccc(C(=O)N4CCCC4)cc3)cc2N=C(NCCN(C)C)C1 [Compound 47, (1E,4E)-2-(2-(Dimethylamino)ethylamino)-N-(3-hydroxypropyl)-N-propyl-8-(4-(pyrrolidine-1-carbonyl)phenyl)-3H-benzo[b]azepine-4-carboxamide] | 20 to 39% |  |  | 
CCOC(=O)C1=Cc2cc(-c3ccc(C(=O)N4CCCC4)cc3)ccc2N=C(N)C1 [Compound 63, (1E,4E)-Ethyl 2-amino-7-(4-(pyrrolidine-1-carbonyl)phenyl)-3H-benzo[b]azepine-4-carboxylate] | 80 to 99% |  |  | IC50 [1]: < 1000 nM
CCOC(=O)C1=Cc2cc(OC)c(-c3ccc(C(=O)N4CCCC4)cc3)cc2N=C(N)C1 [Compound 76, (1E,4E)-ethyl 2-amino-7-methoxy-8-(4-(pyrrolidine-1-carbonyl)phenyl)-3H-benzo[b]azepine-4-carboxylate] | 80 to 99% |  |  | IC50 [1]: ≥ 10000 nM
CCOC(=O)N1Cc2ccc(-c3ccc(C(=O)N4CCCC4)cc3)cc2N=C(N)C12CC2 [Compound 88, (E)-Ethyl 2-amino-8-(4-(pyrrolidine-1-carbonyl)phenyl)spiro[benzo[e][1,4]diazepine-3,1′-cyclopropane]-4(5H)-carboxylate] | 20 to 39% |  |  | IC50 [1]: 5000 to 10000 nM
CCOC(=O)C1=Cc2cc(-c3ccc(C(=O)N4CCCC4)cc3)ccc2N=C(NC)C1 [Compound 2922] |  | 1000 to 10000 nM | ≥ 10000 nM | 
CCOC(=O)C1=Cc2cc(-c3ccc(C(=O)N4CCCC4)cc3)ccc2N=C(NN(C)C)C1 [Compound 2926] |  | 1000 to 10000 nM | ≥ 10000 nM | 
CCOC(=O)C1=Cc2cc(-c3ccc(C(=O)N4CCCC4)cc3)ccc2N=C(N(C)C)C1 [Compound 2929] |  | ≥ 10000 nM | ≥ 10000 nM | 
COC(=O)C1=Cc2cc(-c3ccc(C(=O)N4CCCC4)cc3)ccc2N=C(N)C1 [Compound 2931] |  | < 1000 nM | 1000 to 10000 nM | 
CCOC(=O)N1CC(N)=Nc2ccc(-c3ccc(C(=O)N4CCCC4)cc3)cc2C1 [Compound 2954] |  | ≥ 10000 nM | ≥ 10000 nM | 
CCOC(=O)C1=Cc2cc(-c3ccc(C(=O)N4CCCC4)cc3)ccc2N=C(NN)C1 [Compound 2962] |  | ≥ 10000 nM | ≥ 10000 nM | 
CCOC(=O)C1=Cc2cc(-c3ccc(C(=O)N4CCCC4)cc3)ccc2N2CCN=C2C1 [Compound 2966] |  | ≥ 10000 nM | ≥ 10000 nM | 
CN(C)C(=O)C1=Cc2cc(-c3ccc(C(=O)N4CCCC4)cc3)ccc2N=C(N)C1 [Compound 2986] |  | < 1000 nM | ≥ 10000 nM | 
CCOC(=O)C1=Cc2cc(-c3ccc(C(=O)N4CCCC4)cc3)ccc2-n2c(n[nH]c2=O)C1 [Compound 3000] |  | ≥ 10000 nM | ≥ 10000 nM | 
CCOC(=O)C1=Cc2cc(-c3ccc(C(=O)N4CCCC4)cc3)ccc2N=C(N)C1C (stereo not shown) [Compound 3173] |  | < 1000 nM |  | IC50 [4]: < 1000 nM
CCOC(=O)C1=Cc2cc(-c3ccc(C(=O)N4CCCC4)cc3)ccc2N=C(N)C12CC2 [Compound 3260] |  | < 1000 nM |  | IC50 (IC50, nM, vs. 3M002 10 μM, agonist 3M002 at 10 μM): < 1000 nM; IC50 [4]: < 1000 nM

More lines, main results first:

inhibition at 25 µM | IC50 [2] | IC50 [3] | Structure (SMILES) | other results
40 to 59% |  |  | CCCN(CCCO)C(=O)C1=Cc2ccc(-c3ccc(C(=O)N4CCCC4)cc3)cc2N=C(NC)C1 [Compound 46, (1E,4E)-N-(3-Hydroxypropyl)-2-(methylamino)-N-propyl-8-(4-(pyrrolidine-1-carbonyl)phenyl)-3H-benzo[b]azepine-4-carboxamide] | 
60 to 79% |  |  | CCCN(CCC)C(=O)C1=Cc2cc(OC)c(-c3ccc(C(=O)N4CCCC4)cc3)cc2N=C(N)C1 [Compound 65, (1E,4E)-2-Amino-7-methoxy-N,N-dipropyl-8-(4-(pyrrolidine-1-carbonyl)phenyl)-3H-benzo[b]azepine-4-carboxamide] | IC50 [1]: 5000 to 10000 nM
40 to 59% |  |  | CCCN(CCC)C(=O)C1=Cc2cc(OC)ccc2N=C(N)C1 [Compound 70, (1E,4E)-2-amino-7-methoxy-N,N-dipropyl-3H-benzo[b]azepine-4-carboxamide] | 
60 to 79% |  |  | CCOC(=O)C1=Cc2cc(OCc3ccccn3)ccc2N=C(N)C1 [Compound 74, (1E,4E)-ethyl 2-amino-7-(pyridin-2-ylmethoxy)-3H-benzo[b]azepine-4-carboxylate] | IC50 [1]: 1000 to 5000 nM
60 to 79% |  |  | CCOC(=O)C1=Cc2ccc(-c3ccc(C(=O)N4CCCC4)cc3)cc2N2CCN=C2C1 [Compound 90, (E)-ethyl 9-(4-(pyrrolidine-1-carbonyl)phenyl)-2,4-dihydro-1H-benzo[f]imidazo[1,2-a]azepine-5-carboxylate] | 
 | ≥ 10000 nM | ≥ 10000 nM | CCOC(=O)C1=Cc2cc(-c3ccc(C(=O)N4CCCC4)cc3)ccc2-n2ccnc2C1 [Compound 2919] | 
 | ≥ 10000 nM | ≥ 10000 nM | CCOC(=O)C1=Cc2cc(-c3ccc(C(=O)N4CCCC4)cc3)ccc2-n2cnnc2C1 [Compound 2976] | 
 | < 1000 nM | 1000 to 10000 nM | CC(C)OC(=O)C1=Cc2cc(-c3ccc(C(=O)N4CCCC4)cc3)ccc2N=C(N)C1 [Compound 2984] | 
 | ≥ 10000 nM | ≥ 10000 nM | CCOC(=O)N1Cc2cc(-c3ccc(C(=O)N4CCCC4)cc3)ccc2N=C(N)C12CC2 [Compound 3020] | 
